Assay [1] concerns the target T1, human GPR55 (Homo sapiens, UniProt Q9Y2T6).
T1 construct: expressed in transfected cells; host or cells: HEK293 (human embryonic kidney) cells
Put plainly: Ca2+ mobilization assay (FLIPR, Calcium5 dye), human GPR55. The assay is classed as cell-based. The conditions noted are these: HEK293 cells co-expressing PK-tagged human GPR55 and EA-tagged beta-arrestin; intracellular calcium increase. On the procedure: (§1) This cell-based assay measures the ability of compounds to activate the GPR55 receptor by measuring changes in intracellular calcium levels. HEK293 (human embryonic kidney) cells co-expressing recombinant ProLink (PK) tagged human or rat GPR55 and Enzyme Acceptor (EA) tagged beta-arrestin were seeded into PDL-coated, black-walled clear-bottom 384 well plates in assay buffer (25 mM HEPES, HBSS, 1 mM Probenicid, 0.1% BSA, pH 7.4) containing Calcium5 dye (Molecular Devices). Cells were incubated in suspension with the Calcium5 dye for 1 hour at 37° C., 5% CO2. Dilution series of the compounds in assay buffer were added to the cells in duplicate wells and compound-mediated real-time increases in intracellular calcium concentration were recorded as increased fluorescence using the Molecular Devices FLIPR instrument. Kinetic traces were reduced to a numerical value by subtracting the minimum response from the maximum response.

Assay [2] deals with T2, rat GPR55 (Rattus norvegicus, UniProt F1MAK4).
T2 construct: expressed in transfected cells; host or cells: HEK293 (human embryonic kidney) cells
T2 sequence (F1MAK4 1-319): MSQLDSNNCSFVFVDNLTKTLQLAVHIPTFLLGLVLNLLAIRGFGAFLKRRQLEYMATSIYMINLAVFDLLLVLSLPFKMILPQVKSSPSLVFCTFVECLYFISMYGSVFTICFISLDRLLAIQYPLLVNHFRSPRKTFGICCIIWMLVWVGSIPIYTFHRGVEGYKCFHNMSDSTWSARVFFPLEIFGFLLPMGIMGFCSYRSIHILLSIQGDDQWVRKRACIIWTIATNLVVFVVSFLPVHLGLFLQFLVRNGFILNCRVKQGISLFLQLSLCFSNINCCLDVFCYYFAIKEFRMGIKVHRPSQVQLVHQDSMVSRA
Put plainly: Ca2+ mobilization assay (FLIPR, Calcium5 dye), rat GPR55. The conditions noted are these: HEK293 cells co-expressing PK-tagged rat GPR55 and EA-tagged beta-arrestin; intracellular calcium increase. The assay is classed as cell-based. The protocol: as §1

Structures are written as SMILES.

T1 sequence (Q9Y2T6 whole entry): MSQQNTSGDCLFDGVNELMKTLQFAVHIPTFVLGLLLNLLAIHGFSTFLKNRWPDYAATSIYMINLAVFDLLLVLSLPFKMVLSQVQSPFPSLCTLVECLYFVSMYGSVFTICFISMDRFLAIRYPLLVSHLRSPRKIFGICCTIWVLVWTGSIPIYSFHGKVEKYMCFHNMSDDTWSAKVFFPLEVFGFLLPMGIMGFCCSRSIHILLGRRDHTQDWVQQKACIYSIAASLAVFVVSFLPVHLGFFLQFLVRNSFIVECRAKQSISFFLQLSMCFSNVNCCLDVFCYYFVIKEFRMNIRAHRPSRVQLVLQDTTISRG

As for `C[C@@H](Nc1ncc(-c2ccc3oc(=O)n(CCO)c3c2)nn1)c1ccc(F)cc1` [Example 65, (R)-5-(3-((1-(4-fluorophenyl)ethyl)amino)-1,2,4-triazin-6-yl)-3-(2-hydroxyethyl)benzo[d]oxazol-2(3H)-one], the figures for the EC50 in assay [1] and in assay [2] were no more than 1000 nM and no more than 5000 nM, respectively. The corresponding values for `C[C@@H](Nc1ccc(-c2cncc(C3CC3)c2)cn1)c1ccc(F)cc1` [Example 5, (R)-5′-cyclopropyl-N-(1-(4-fluorophenyl)ethyl)-[3,3′-bipyridin]-6-amine] are no more than 50 nM and no more than 1000 nM. Regarding `C[C@@H](Nc1ncc(-c2ccc3oc(=O)n(C)c3c2)nn1)c1ccc(F)c(F)c1` [Example 76, (R)-5-(3-((1-(3,4-difluorophenyl)ethyl)amino)-1,2,4-triazin-6-yl)-3-methylbenzo[d]oxazol-2(3H)-one], the EC50 in assay [1] and in assay [2] was no more than 1000 nM each time. Consider `C[C@@H](Nc1ncc(-c2cncc(S(C)(=O)=O)c2)nn1)c1ccc(F)cc1` [Example 28, (R)-N-(1-(4-fluorophenyl)ethyl)-6-(5-(methylsulfonyl)pyridin-3-yl)-1,2,4-triazin-3-amine], for which the EC50 in assay [1] was no more than 50 nM; in assay [2], no more than 1000 nM. On to `C[C@@H](Nc1ncc(-c2ccc3oc(=O)n(C)c3c2)nn1)c1ccc(F)cc1` [Example 64, (R)-5-(3-((1-(4-fluorophenyl)ethyl)amino)-1,2,4-triazin-6-yl)-3-methylbenzo[d]oxazol-2(3H)-one], for which the EC50 in assay [2] is no more than 200 nM. Turning to `CCc1cncc(-c2ccc(N[C@@H]3CCc4ccccc43)nc2)c1` [Example 21, (R)-N-(2,3-dihydro-1H-inden-1-yl)-5′-ethyl-[3,3′-bipyridin]-6-amine], the EC50 in assay [1] was no more than 200 nM; in assay [2] it was no more than 5000 nM.

On to `CCc1cncc(-c2ccc(N[C@H](C)c3ccc(C)cc3)nc2)c1` [Example 50, (R)-5′-ethyl-N-(1-(p-tolyl)ethyl)-[3,3′-bipyridin]-6-amine], for which the EC50 in assay [1] was no more than 1000 nM; in assay [2] it was no more than 5000 nM. As to `C[C@@H](Nc1ccc(-c2cncc(S(C)(=N)=O)c2)cn1)c1ccc(F)cc1` (single isomer, unassigned) [Example 27a], in assay [2], the EC50 was no more than 200 nM. With `C[C@@H](Nc1cnc(-c2cnc3oc(=O)n(C)c3c2)cn1)c1ccc(F)cc1` [Example 26, (R)-6-(5-((1-(4-fluorophenyl)ethyl)amino)pyrazin-2-yl)-1-methyloxazolo[5,4-b]pyridin-2(1H)-one], the values for the EC50 in assay [1] and in assay [2] were no more than 1000 nM and no more than 5000 nM, respectively.

On to `CC(Nc1ncc(-c2ccc3oc(=O)n(C)c3c2)nn1)c1ccc(Cl)c(Cl)c1` (single isomer, unassigned) [Example 78a, 5-(3-((1-(3,4-dichlorophenyl)ethyl)amino)-1,2,4-triazin-6-yl)-3-methylbenzo[d]oxazol-2(3H)-one], for which the EC50 in assay [1] and in assay [2] was no more than 1000 nM in each case. With `C[C@@H](Nc1cnc(-c2ccc3oc(=O)n(C)c3c2)cn1)c1ccc(F)cc1` [Example 62, (R)-5-(5-((1-(4-fluorophenyl)ethyl)amino)pyrazin-2-yl)-3-methylbenzo[d]oxazol-2(3H)-one], the EC50 in assay [1] and in assay [2] was no more than 1000 nM throughout.

For `CCS(=O)(=O)c1cncc(-c2ccc(N[C@H](C)c3ccc(F)cc3)nc2)c1` [Example 15, (R)-5′-(ethylsulfonyl)-N-(1-(4-fluorophenyl)ethyl)-[3,3′-bipyridin]-6-amine], the figures for the EC50 in assay [1] and in assay [2] were no more than 200 nM and no more than 1000 nM, respectively. Take `C[C@@H](Nc1ncc(-c2cnc3c(c2)ncn3C)nn1)c1ccc(F)cc1` [Example 83, (R)-N-(1-(4-fluorophenyl)ethyl)-6-(3-methyl-3H-imidazo[4,5-b]pyridin-6-yl)-1,2,4-triazin-3-amine]: the EC50 in assay [1] and in assay [2] was no more than 5000 nM in each case. As to `CC(Nc1ncc(-c2ccc3oc(=O)n(C)c3c2)nn1)c1ccc(C#N)cc1` (stereo not shown) [Example 74, 4-(1-((6-(3-methyl-2-oxo-2,3-dihydrobenzo[d]oxazol-5-yl)-1,2,4-triazin-3-yl)amino)ethyl)benzonitrile], the EC50 in assay [1] was no more than 1000 nM; in assay [2] it was no more than 5000 nM. With `C[C@@H](Nc1cnc(-c2cncc(CC(F)(F)F)c2)cn1)c1ccc(F)cc1` [Example 53, (R)-N-(1-(4-fluorophenyl)ethyl)-5-(5-(2,2,2-trifluoroethyl)pyridin-3-yl)pyrazin-2-amine], in assay [2], the EC50 was no more than 5000 nM.

On to `C[C@@H](Nc1ccc(-c2ccc3oc(=O)n(C)c3c2)cn1)c1ccc(F)cc1` [Example 60, (R)-5-(6-((1-(4-fluorophenyl)ethyl)amino)pyridin-3-yl)-3-methylbenzo[d]oxazol-2(3H)-one], for which, in assay [2], the EC50 is no more than 1000 nM. For `C[C@@H](Nc1ncc(-c2ccc3ncn(C)c3c2)nn1)c1ccc(F)cc1` [Example 81, (R)-N-(1-(4-fluorophenyl)ethyl)-6-(1-methyl-1H-benzo[d]imidazol-6-yl)-1,2,4-triazin-3-amine], the EC50 was no more than 1000 nM in assay [1] and no more than 5000 nM in assay [2]. For `C[C@@H](Nc1cnc(-c2cncc(C=C(F)F)c2)cn1)c1ccc(F)cc1` [Example 34, (R)-5-(5-(2,2-difluorovinyl)pyridin-3-yl)-N-(1-(4-fluorophenyl)ethyl)pyrazin-2-amine] the same measures were no more than 50 nM and no more than 1000 nM. The corresponding values for `COCn1c(=O)oc2ccc(-c3cnc(N[C@H](C)c4ccc(F)cc4)nn3)cc21` [Example 66, (R)-5-(3-((1-(4-fluorophenyl)ethyl)amino)-1,2,4-triazin-6-yl)-3-(methoxymethyl)benzo[d]oxazol-2(3H)-one] are no more than 200 nM and no more than 1000 nM.

In the case of `C[C@@H](Nc1ncc(-c2ccc3oc(=O)n(C(F)F)c3c2)nn1)c1ccc(F)cc1` [Example 68, (R)-3-(difluoromethyl)-5-(3-((1-(4-fluorophenyl)ethyl)amino)-1,2,4-triazin-6-yl)benzo[d]oxazol-2(3H)-one], the values for the EC50 in assay [1] and in assay [2] were no more than 200 nM and no more than 1000 nM, respectively.

On to `C[C@@H](Nc1ncc(-c2ccc3oc(=O)n(C)c3c2)nn1)c1ccc(Cl)cc1` [Example 73, (R)-5-(3-((1-(4-chlorophenyl)ethyl)amino)-1,2,4-triazin-6-yl)-3-methylbenzo[d]oxazol-2(3H)-one], for which the values for the EC50 in assay [1] and in assay [2] were no more than 1000 nM and no more than 5000 nM, respectively. For the compound `C[C@@H](Nc1ncc(-c2cncc(CC(F)(F)F)c2)nn1)c1ccc(F)cc1` [Example 55, (R)-N-(1-(4-fluorophenyl)ethyl)-6-(5-(2,2,2-trifluoroethyl)pyridin-3-yl)-1,2,4-triazin-3-amine], the EC50 in assay [2] is no more than 5000 nM. Same read-out and setting: the same measure for `Cc1cncc(-c2ccc(N[C@H](C)c3ccc(F)cc3)nc2)c1` [Example 3, (R)-N-(1-(4-fluorophenyl)ethyl)-5′-methyl-[3,3′-bipyridin]-6-amine]: no more than 50 nM.

For the compound `C[C@@H](Nc1ncc(-c2cncc(S(C)(=O)=O)c2)cn1)c1ccc(F)cc1` [Example 25, (R)-N-(1-(4-fluorophenyl)ethyl)-5-(5-(methylsulfonyl)pyridin-3-yl)pyrimidin-2-amine], the EC50 in assay [2] is no more than 5000 nM. `CN=S(C)(=O)c1cncc(-c2ccc(N[C@H](C)c3ccc(F)cc3)nc2)c1` (mixture of isomers) [Example 30, (6′-(((R)-1-(4-fluorophenyl)ethyl)amino)-[3,3′-bipyridin]-5-yl)(methyl)(methylimino)-λ6-sulfanone]: in assay [2], the EC50 is no more than 50 nM. As to `C[C@@H](Nc1ccc(-c2cncc(C(F)(F)F)c2)cn1)c1ccc(F)cc1` [Example 8, (R)-N-(1-(4-fluorophenyl)ethyl)-5′-(trifluoromethyl)-[3,3′-bipyridin]-6-amine], in assay [2], the EC50 is no more than 50 nM. The same measure, in the same setting: the result for `C[C@@H](Nc1ccc(-c2cncc(S(C)(=N)=O)c2)cn1)c1ccc(F)cc1` (single isomer, unassigned) [Example 27b] reads no more than 1000 nM. The same measure, in the same setting: the same measure for `CN=S(C)(=O)c1cncc(-c2ccc(N[C@H](C)c3ccc(F)cc3)nc2)c1` (single isomer, unassigned) [Example 30a]: no more than 50 nM. For `CCc1cncc(-c2ccc(N[C@H](C)c3ccc(F)cc3)nc2)c1` [Example 4, (R)-5′-ethyl-N-(1-(4-fluorophenyl)ethyl)-[3,3′-bipyridin]-6-amine], the EC50 in assay [2] is no more than 1000 nM. On the same count and under the same terms, the result for `CN=S(C)(=O)c1cncc(-c2ccc(N[C@H](C)c3ccc(F)cc3)nc2)c1` (single isomer, unassigned) [Example 30b] reads no more than 1000 nM; that for `C[C@@H](Nc1ccc(-c2cncc(S(C)(=N)=O)c2)cn1)c1ccc(F)cc1` (mixture of isomers) [Example 27, (6′-(((R)-1-(4-fluorophenyl)ethyl)amino)-[3,3′-bipyridin]-5-yl)(imino)(methyl)-λ^6-sulfanone], no more than 50 nM; that for `Cc1cncc(-c2ccc(NC(C)c3ccc(F)cc3)nc2)c1` (stereo not shown) [Example 1, N-(1-(4-fluorophenyl)ethyl)-5′-methyl-[3,3′-bipyridin]-6-amine], no more than 5000 nM.
